Experimental data taken from the supplement of paper PMC11061612.

Columns and labels:
[1] = test system: HT-1376 (Bladder Carcinoma); experiment: Bliss excess, mean over the matrix (fraction); higher = more synergy
How it was run: (§1)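 Cell lines grown in DMEM/F12 or RPMI with 10% FBS were plated in 1536-well plates and held 24 hours at 37°C, 5% CO2 before 72 hours of exposure to two-drug dose matrices, with DMSO typically at 0.2%. CellTiter-Glo 2.0 luminescence gave viability, which was converted to inhibition. Vehicle wells were set to 0 and blank wells to 1. Combination Emax is the second-highest inhibition in the matrix, and Bliss excess is the observed combination effect minus the expected EA + EB − EA·EB, where EA and EB are the single-agent effects.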

[2] = test system: KURAMOCHI (Ovarian Carcinoma); experiment: as above
How it was run: as §1

[3] = test system: HO-1-N-1 (Oral Cavity Carcinoma); experiment: as above
How it was run: as §1

[4] = test system: KELLY (Neuroblastoma); experiment: as above
How it was run: as §1

[5] = test system: NCI-H2085 (Non-Small Cell Lung Carcinoma); experiment: combination Emax (second highest fraction inhibited in the dose matrix, 72 h); higher = more inhibition; extreme values may be limits of the assay
How it was run: as §1

[6] = test system: NB10 (Neuroblastoma); experiment: as above
How it was run: as §1

[7] = test system: Calu-3 (Lung Adenocarcinoma); experiment: as above
How it was run: as §1

[8] = test system: T98G (Glioblastoma); experiment: as above
How it was run: as §1

[9] = test system: CAL-148 (Breast Carcinoma); experiment: as above
How it was run: as §1

[10] = test system: HT-1376 (Bladder Carcinoma); experiment: as above
How it was run: as §1

[11] = test system: HCC-78 (Lung Adenocarcinoma); experiment: as above
How it was run: as §1

[12] = test system: Hs-578-T (Breast Carcinoma); experiment: as above
How it was run: as §1

[13] = test system: KURAMOCHI (Ovarian Carcinoma); experiment: as above
How it was run: as §1

[14] = test system: Ramos-2G6-4C10 (Burkitt's Lymphoma); experiment: as above
How it was run: as §1

[15] = test system: TE-15 (Esophageal Squamous Cell Carcinoma); experiment: as above
How it was run: as §1

[16] = test system: LS-180 (Colorectal Carcinoma); experiment: as above
How it was run: as §1

[17] = test system: NCI-H82 (Small Cell Lung Carcinoma); experiment: as above
How it was run: as §1

[18] = test system: HO-1-N-1 (Oral Cavity Carcinoma); experiment: as above
How it was run: as §1

[19] = test system: ME-1 (Acute Myeloid Leukemia); experiment: as above
How it was run: as §1

[20] = test system: UM-UC-3 (Bladder Carcinoma); experiment: as above
How it was run: as §1
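Wherever Bliss excess, mean over the matrix is given: after 72 h of two-drug dosing.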

SMILES	Bliss excess [1]	Bliss excess [2]	Bliss excess [3]	Bliss excess [4]	combination Emax [5]	combination Emax [6]	combination Emax [7]	combination Emax [8]	combination Emax [9]	combination Emax [10]	combination Emax [11]	combination Emax [12]	combination Emax [13]	combination Emax [14]	combination Emax [15]	combination Emax [16]	combination Emax [17]	combination Emax [18]	combination Emax [19]	combination Emax [20]
C[C@@H](Oc1cc(-c2cnn(C3CCNCC3)c2)cnc1N)c1c(Cl)ccc(F)c1Cl [Crizotinib] + CC1=C(C(=CC=C1)Cl)NC(=O)C2=CN=C(S2)NC3=CC(=NC(=N3)C)N4CCN(CC4)CCO [Dasatinib] (first compound max 10 µM, 7x7, partner max 2 µM)	-0.0104	-0.0038	0.0921	-0.019	1	0.792	0.767	0.971	0.578	0.418	0.754	0.961	0.909	0.586	0.79	0.585	0.875	0.972	0.258	0.716
C[C@@H](Oc1cc(-c2cnn(C3CCNCC3)c2)cnc1N)c1c(Cl)ccc(F)c1Cl [Crizotinib] + Cn1cnc2c(F)c(Nc3ccc(Br)cc3Cl)c(C(=O)NOCCO)cc21 [Selumetinib] (first compound max 10 µM, 7x7, partner max 10 µM)	-0.0419	-0.0483	-0.0087	0.0644	0.545	0.872	0.172	0.427	0.578	0.0756	0.637	0.512	0.508	0.4	0.406	0.717	0.787	0.769	0.458	0.346
CS(=O)(=O)CCNCc1ccc(-c2ccc3ncnc(Nc4ccc(OCc5cccc(F)c5)c(Cl)c4)c3c2)o1 [Lapatinib] + Cn1cnc2c(F)c(Nc3ccc(Br)cc3Cl)c(C(=O)NOCCO)cc21 [Selumetinib] (first compound max 10 µM, 7x7, partner max 10 µM)	0.0188	-0.0116	0.145	-0.0152	0.341	0.481	0.933	0.25	0.373	0.287	0.228	0.69	0.58	0.347	0.775	0.758	0.416	0.956	0.397	0.306
CS(=O)(=O)CCNCc1ccc(-c2ccc3ncnc(Nc4ccc(OCc5cccc(F)c5)c(Cl)c4)c3c2)o1 [Lapatinib] + NC1(c2ccc(-c3nc4ccn5c(=O)[nH]nc5c4cc3-c3ccccc3)cc2)CCC1 [MK-2206] (first compound max 10 µM, 7x7, partner max 10 µM)	-0.0333	0.0264	0.0213	0.0098	0.587	0.903	0.954	0.908	0.996	0.177	0.264	0.936	0.763	0.954	0.831	0.795	0.932	0.963	0.301	0.253
O=C(c1cc(Cc2n[nH]c(=O)c3ccccc23)ccc1F)N1CCN(C(=O)C2CC2)CC1 [Olaparib] + CC1(C)CCC(CN2CCN(c3ccc(C(=O)NS(=O)(=O)c4ccc(NCC5CCOCC5)c([N+](=O)[O-])c4)c(Oc4cnc5[nH]ccc5c4)c3)CC2)=C(c2ccc(Cl)cc2)C1 [Venetoclax] (first compound max 10 µM, 7x7, partner max 1 µM)	-0.0522	-0.0482	0.048	0.0744	0.0675	0.348	0.102	0.123	0.261	0.0615	0.0996	0.308	0.137	0.126	0.251	0.203	0.395	0.221	1	0.0664
O=C(c1cc(Cc2n[nH]c(=O)c3ccccc23)ccc1F)N1CCN(C(=O)C2CC2)CC1 [Olaparib] + CN(CC[C@H](CSC1=CC=CC=C1)NC2=C(C=C(C=C2)S(=O)(=O)NC(=O)C3=CC=C(C=C3)N4CCC(CC4)[C@H](C5=CC=CC=C5C6=CC=C(C=C6)Cl)O)S(=O)(=O)C(F)(F)F)CCO [AZD4320] (first compound max 10 µM, 7x7, partner max 1 µM)	-0.0572	-0.0414	0.0106	0.134	0.289	0.389	0.257	0.251	0.83	0.215	0.241	0.62	0.379	0.404	0.22	0.227	0.382	0.352	1	0.188
O=C(c1cc(Cc2n[nH]c(=O)c3ccccc23)ccc1F)N1CCN(C(=O)C2CC2)CC1 [Olaparib] + COc1nnc2ccc(N3CCC(c4ccc(OCCN5CCN(C)C(=O)[C@H]5C)cc4)CC3)nn12 [AZD5153] (first compound max 10 µM, 7x7, partner max 1 µM)	-0.0425	-0.0231	-0.02	-0.042	0.383	0.406	0.516	0.408	0.73	0.0928	0.325	0.729	0.772	0.611	0.516	0.581	0.535	0.604	0.403	0.359
O=C(c1cc(Cc2n[nH]c(=O)c3ccccc23)ccc1F)N1CCN(C(=O)C2CC2)CC1 [Olaparib] + Cc1c2c(nn1C)CSCc1cc(n(C)n1)CSc1cc(c3ccccc3c1)OCCCc1c(C(=O)O)n(C)c3c-2c(Cl)ccc13 [AZD5991] (first compound max 10 µM, 7x7, partner max 1 µM)	-0.0392	-0.0546	0.0456	0.0826	0.0831	0.437	0.0927	0.223	0.635	0.0928	0.13	0.489	0.28	0.978	0.29	0.221	0.899	0.78	0.551	0.0695
N#Cc1cnc(Nc2cc(NC[C@H]3CNCCO3)c(C(F)(F)F)cn2)cn1 [SRA737] + C=CCn1c(=O)c2cnc(Nc3ccc(N4CCN(C)CC4)cc3)nc2n1-c1cccc(C(C)(C)O)n1 [AZD1775] (first compound max 10 µM, partner max 1 µM)	0.0357	-0.0194	0.0976	0.0387	0.882	0.84	0.495	0.9	0.969	0.387	0.714	0.783	0.717	1	0.821	0.758	0.985	0.666	0.566	0.471
N#Cc1cnc(Nc2cc(NC[C@H]3CNCCO3)c(C(F)(F)F)cn2)cn1 [SRA737] + CCc1c2c(nc3ccc(O)cc13)-c1cc3c(c(=O)n1C2)COC(=O)[C@]3(O)CC [SN-38] (first compound max 10 µM, 7x7, partner max 0.3 µM)	0.0047	-0.0093	-0.0022	-0.0429	0.665	0.769	0.674	0.921	0.907	0.566	0.959	0.804	0.9	1	0.931	0.74	0.967	0.975	0.675	0.967
N#Cc1cnc(Nc2cc(NC[C@H]3CNCCO3)c(C(F)(F)F)cn2)cn1 [SRA737] + Nc1ccn([C@@H]2O[C@H](CO)[C@@H](O)C2(F)F)c(=O)n1 [Gemcitabine] (first compound max 10 µM, 7x7, partner max 0.3 µM)	-0.0059	-0.0079	0.015	0.0213	0.595	0.946	0.67	0.825	0.845	0.442	0.906	0.837	0.673	0.976	0.923	0.804	0.978	1	0.66	0.966
N#Cc1cnc(Nc2cc(NC[C@H]3CNCCO3)c(C(F)(F)F)cn2)cn1 [SRA737] + O=c1[nH]cc(F)c(=O)[nH]1 [5-Fluorouracil] (first compound max 10 µM, 7x7, partner max 20 µM)	-0.0591	-0.0351	0.0623	0.0153	0.501	0.53	0.213	0.837	0.497	0.175	0.819	0.612	0.606	0.84	0.705	0.568	0.816	0.473	0.471	0.208
Cc1nc(-c2cn3c(n2)-c2ccc(-c4cnn(C(C)(C)C(N)=O)c4)cc2OCC3)n(C(C)C)n1 [Taselisib] + O=C(Nc1ccc2[nH]nc(-c3ccncc3)c2c1)[C@@H]1CCN(CC(=O)N2CCN(c3ccc(-c4ncccn4)cc3)CC2)C1 [SCH772984] (first compound max 10 µM, 7x7, partner max 5 µM)	-0.0046	0.0721	0.0562	0.135	0.603	0.791	0.855	0.851	0.964	0.227	0.664	0.89	0.683	0.163	0.832	0.867	0.429	0.999	0.272	0.716
